The values below come from patent US7476675B2, “Quinolinone derivatives and uses thereof” (Roche Palo Alto LLC, priority 2003, dated 2009).

Series [1] deals with T1, recombinant human 5-HT6 receptor (Homo sapiens, UniProt P50406).
T1 construct: expressed in transfected cells
The series can be described thus: Radioligand binding studies: competition for [3H]LSD binding in membranes of HEK293 cells expressing the receptor. The conditions noted are these: [3H]LSD (5 nM), HEK293 cell membranes, 60 min at 37° C., pH 7.4; read-out: pKi for 5-HT6 (converted). As to the method: The binding activity of compounds of this invention in vitro was determined as follows. Duplicate determinations of ligand affinity are made by competing for binding of [^3H]LSD in cell membranes derived from HEK293 cells stably expressing recombinant human 5-HT6 receptor. This cell line was prepared by the method described by Monsma et al., Molecular Pharmacology, Vol. 43 pp. 320-327 (1993).
All determinations were made in assay buffer containing 50 mM Tris-HCl, 10 mM MgSO4, 0.5 mM EDTA, 1 mM ascorbic acid, pH 7.4 at 37° C., in a 250 microliter reaction volume. Assay tubes containing [^3H] LSD (5 nM), competing ligand, and membrane were incubated in a shaking water bath for 60 min. at 37° C., filtered onto Packard GF-B plates (pre-soaked with 0.3% PEI) using a Packard 96 well cell harvester and washed 3 times in ice cold 50 mM Tris-HCl. Bound [^3H] LSD was determined as radioactive counts per minute using Packard TopCount.
Displacement of [^3H]LSD from the binding sites was quantified by fitting concentration-binding data to a 4-parameter logistic equation:
[formula] where Hill is the Hill slope, [ligand] is the concentration of competing radioligand and IC50 is the concentration of radioligand producing half-maximal specific binding of radioligand. The specific binding window is the difference between the Bmax and the basal parameters.

Structures are written as SMILES. Structures can show the parent of a compound that is named as a salt.

T1 sequence (P50406 whole entry): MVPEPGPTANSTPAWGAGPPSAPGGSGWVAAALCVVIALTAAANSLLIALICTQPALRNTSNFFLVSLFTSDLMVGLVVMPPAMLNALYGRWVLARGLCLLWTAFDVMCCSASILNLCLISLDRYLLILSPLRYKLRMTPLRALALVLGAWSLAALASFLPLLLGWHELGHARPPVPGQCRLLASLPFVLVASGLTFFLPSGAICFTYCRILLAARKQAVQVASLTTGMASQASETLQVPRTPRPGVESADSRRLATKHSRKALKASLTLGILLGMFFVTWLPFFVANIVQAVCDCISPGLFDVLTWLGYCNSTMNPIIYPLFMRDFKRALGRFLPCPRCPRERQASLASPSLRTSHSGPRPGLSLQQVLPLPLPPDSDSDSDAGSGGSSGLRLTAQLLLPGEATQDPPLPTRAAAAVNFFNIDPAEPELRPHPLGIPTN

On to `O=C1CCCc2ccccc2N1Cc1cccc(N2CCNCC2)c1` (as salt: maleate) [Compound 17, 1-(3-Piperazin-1-yl-benzyl)-1,3,4,5-tetrahydrobenzo[b]azepin-2-one], for which the melting point is 149 to 150 °C.
In the case of `COc1cc(CN2C(=O)CCc3ccccc32)cc(N2CCNCC2)c1` [Compound 4, 1-(3-Methoxy-5-piperazin-1-yl-benzyl)-3,4-dihydro-1H-quinolin-2-one], in series [1], the Ki is roughly 1 nM.

Usually melting point stands for the temperature, or range, at which the solid turns liquid.
